The test system of the assay is virus. The assay can be described thus: Virus inactivation by BCTP component. The following applies: concentrations equivalent to 11% BCTP.

For the substance TRITON-X100, the “ability to inactivate a virus” value was “less ability to inactivate a virus”.

These data come from US20090291095A1, “NANOEMULSION ADJUVANTS” (The Regents of the University of Michigan, priority 2008, published 2009).
